Source: publication PMC4965013, “Open Source Drug Discovery with the Malaria Box Compound Collection for Neglected Diseases and Beyond” (PLoS Pathogens, 2016)

Key:
[1] = tested on: P. falciparum 3D7 trophozoites; assay: Metabolomic fingerprint profiling LC-MS; type: cell-based, Plasmodium falciparum; set-up: UDP-D-glucose / ADP-D-glucose: unit not given here
P. falciparum = assay: EC50 listed in S2 Table Metabolomics (used to set the concentration tested); type: cell-based; details: Plasmodium falciparum; EC50 used for Factor_XEC50 in metabolomics; read-out: EC50_nM
[2] = metabolite level change after treatment

EC50 (P. falciparum): 205 nM
Compound: CCOC(=O)c1c(NC(=O)c2ccccc2)sc2c(O)c(CN(CC)CC)ccc12 [MMV665831]
Acetyllysine ([1]; S2 Table Metabolomics, metabolite Acetyllysine): -3.559
N-acetyl-L-ornithine ([1]; S2 Table Metabolomics, metabolite N-acetyl-L-ornithine): -2.775
N-carbamoyl-L-aspartate ([1]; S2 Table Metabolomics, metabolite N-carbamoyl-L-aspartate): -1.992
NADPH ([1]; S2 Table Metabolomics, metabolite NADPH): 1.923
dAMP ([1]; S2 Table Metabolomics, metabolite dAMP): -1.503
dCMP ([1]; S2 Table Metabolomics, metabolite dCMP): -0.7769
dTDP ([1]; S2 Table Metabolomics, metabolite dTDP): -0.143
dTMP ([1]; S2 Table Metabolomics, metabolite dTMP): 0.09088
dTTP ([1]; S2 Table Metabolomics, metabolite dTTP): -0.5361
dihydroorotate ([1]; S2 Table Metabolomics, metabolite dihydroorotate): -1.759
orotate ([1]; S2 Table Metabolomics, metabolite orotate): -1.534
DLH ([1]; S2 Table Metabolomics, peptide DLH): -5.287
DLS/SDL/SID ([1]; S2 Table Metabolomics, peptide DLS/SDL/SID): -4.31
PD ([1]; S2 Table Metabolomics, peptide PD): -4.8541
PEE ([1]; S2 Table Metabolomics, peptide PEE): -3.834
PVNF ([1]; S2 Table Metabolomics, peptide PVNF): -4.964
3-phosphoglycerate ([1]; metabolite 3-phosphoglycerate, S2 Table Metabolomics): -0.2896
ADP-D-glucose ([1]; metabolite ADP-D-glucose, S2 Table Metabolomics): -0.2463
ATP ([1]; metabolite ATP, S2 Table Metabolomics): 0.0783
CDP ([1]; metabolite CDP, S2 Table Metabolomics, change in metabolite level after compound treatment): 0.9119
D-sedoheptulose-1/7-phosphate ([1]; metabolite D-sedoheptulose-1/7-phosphate, S2 Table Metabolomics, change in metabolite level after compound treatment): 0.4987
FAD ([1]; metabolite FAD, S2 Table Metabolomics): 0.1414
GMP ([1]; metabolite GMP, S2 Table Metabolomics, change in metabolite level after compound treatment): -0.668
NAD+ ([1]; metabolite NAD+, S2 Table Metabolomics): -0.0766
NADP+ ([1]; metabolite NADP+, S2 Table Metabolomics): 0.2915
Octoluse Bisphosphate ([1]; metabolite Octoluse Bisphosphate, S2 Table Metabolomics, change in metabolite level after compound treatment): -0.5945
Pyroglutamic acid ([1]; metabolite Pyroglutamic acid, S2 Table Metabolomics): 0.1607
UDP-D-glucose ([1]; metabolite UDP-D-glucose, S2 Table Metabolomics): 0.05295
UDP-D-glucuronate ([1]; metabolite UDP-D-glucuronate, S2 Table Metabolomics): 0.02399
UDP-N-acetyl-glucosamine ([1]; metabolite UDP-N-acetyl-glucosamine, S2 Table Metabolomics): -0.03093
UDP ([1]; metabolite UDP, S2 Table Metabolomics, change in metabolite level after compound treatment): 0.469
UMP ([1]; metabolite UMP, S2 Table Metabolomics, change in metabolite level after compound treatment): -0.6472
UTP ([1]; metabolite UTP, S2 Table Metabolomics, change in metabolite level after compound treatment): 0.04522
a-ketoglutarate ([1]; metabolite a-ketoglutarate, S2 Table Metabolomics): -1.141
citrate/isocitrate ([1]; metabolite citrate/isocitrate, S2 Table Metabolomics, change in metabolite level after compound treatment): 0.03995
cytidine ([1]; metabolite cytidine, S2 Table Metabolomics): 0.9734
dATP ([1]; metabolite dATP, S2 Table Metabolomics): -0.7894
dGMP/AMP ([1]; metabolite dGMP/AMP, S2 Table Metabolomics, change in metabolite level after compound treatment): -0.1413
fumarate ([1]; metabolite fumarate, S2 Table Metabolomics, change in metabolite level after compound treatment): -1.268
glucose-1/6-phosphate ([1]; metabolite glucose-1/6-phosphate, S2 Table Metabolomics, change in metabolite level after compound treatment): -0.4706
glycerate ([1]; metabolite glycerate, S2 Table Metabolomics, change in metabolite level after compound treatment): -0.5026
guanine ([1]; metabolite guanine, S2 Table Metabolomics, change in metabolite level after compound treatment): -0.4153
guanosine ([1]; metabolite guanosine, S2 Table Metabolomics, change in metabolite level after compound treatment): -0.8776
hypoxanthine ([1]; metabolite hypoxanthine, S2 Table Metabolomics): -0.04834
indole ([1]; metabolite indole, S2 Table Metabolomics): -0.03305
inosine ([1]; metabolite inosine, S2 Table Metabolomics, change in metabolite level after compound treatment): -0.4277
2_3-Diphosphoglyceric acid [1, 2]: 0.2082
4-phosphopantothenate [1, 2]: -0.594
6-phospho-D-gluconate [1, 2]: -0.9918
FMN [1, 2]: 0.1595
IMP [1, 2]: -0.2597
Pyrophosphate [1, 2]: -0.0001746
Sedoheptoluse bisphosphate [1, 2]: -0.3963
cyclic-AMP [1, 2]: -0.8626
glutathione disulfide [1, 2]: -0.3472
lactate [1, 2]: -0.3473
myo-inositol [1, 2]: -0.3976
nicotinate ([1]; metabolite nicotinate, S2 Table Metabolomics): -0.05954
ornithine ([1]; metabolite ornithine, S2 Table Metabolomics): -0.2486
phosphoenolpyruvate ([1]; metabolite phosphoenolpyruvate, S2 Table Metabolomics): -0.1118
pyruvate ([1]; metabolite pyruvate, S2 Table Metabolomics, change in metabolite level after compound treatment): -0.4191
ribose-phosphate ([1]; metabolite ribose-phosphate, S2 Table Metabolomics): -0.6703
sarcosine/alanine ([1]; metabolite sarcosine/alanine, S2 Table Metabolomics, change in metabolite level after compound treatment): -1.233
sn-glycerol-3-phosphate ([1]; metabolite sn-glycerol-3-phosphate, S2 Table Metabolomics): -0.08824
succinate/methylmalonic acid ([1]; metabolite succinate/methylmalonic acid, S2 Table Metabolomics, change in metabolite level after compound treatment): -0.8852
uridine ([1]; metabolite uridine, S2 Table Metabolomics, change in metabolite level after compound treatment): -0.3477
xanthosine ([1]; metabolite xanthosine, S2 Table Metabolomics, change in metabolite level after compound treatment): -1.069
